From patent US5639775A, “4-[4'-piperodinyl or 3'-pirrolidinyl] substituted imidazoles as H3 -receptor antagonists and therapeutic uses thereof” (The University of Toledo, priority 1994, dated 1997)
Where two headings read alike, the source gives them in different places.

Assays:
[1] = tested on: H3 receptors in the cortex; assay: blood-brain barrier penetration by ex vivo binding of [3H]-Nα-methylhistamine to cortical homogenate of injected rats; format: in vivo, rat
Description: Blood-brain barrier penetration in rats was assessed by an ex vivo binding procedure. Young adult male Long-Evans rats were injected i.p. with saline or H3 antagonists in saline. At various times after injection animals were sacrificed, the cortex was removed, homogenized in 50 mM Na/K-phosphate buffer, pH 7.4, and the binding of 1 nM [^3 H]-N^[…] -methylhistamine was measured using 400 μg protein of the homogenate. Nonspecific binding was accounted for by the inclusion of excess thioperamide in some samples. Under these conditions, the binding was approximately 90% specific.

[2] = tested on: male albino CF-1 mice; assay: behavioral effects: sleep induced by (R)α-methylhistamine in mice; format: in vivo
Description: The overall strategy to show central nervous system antagonist activity was to challenge effects of the agonist (R)α-methylhistamine. Therefore, the first objective was to establish a dose response curve for behavioral effects of (R)α-methylhistamine. […] Saline or (R)α-methylhistamine in saline was injected i.p. in a volume≤0.4 ml. […] Animals were scored for the presence (1) or absence (0) of the behavior and the results were reported as the accumulated score for a 30 minute period (maximum score=9).
To assess the effects of antagonists, they were administered with the (R)α-methylhistamine in saline.

[3] = toxicity observed in all testing to date; format: in vivo; settings: even at high doses
[4] = tested on: Glycine; assay: NOVASCREEN receptor selectivity assay (excitatory amino acids); format: binding; settings: 10^-5 M
Excerpt: (§1) Bolded values represent inhibition of fifty percent or greater.

[5] = tested on: Glycine; assay: NOVASCREEN receptor selectivity assay (inhibitory amino acids); format: binding; settings: 10^-5 M
Excerpt: as §1

[6] = format: binding; settings: 10^-5 M; w-Conotoxin reference
[7] = tested on: Calcium; assay: NOVASCREEN receptor selectivity assay (channel proteins, Nifedipine reference); format: binding; settings: 10^-5 M
Excerpt: as §1

[8] = tested on: rats; settings: cited from earlier work
[9] = biological target: Glycine; settings: read-out: Reference Ki; reference compound; inhibitory; cited from earlier work
[10] = biological target: T1, histamine H3 receptor (Rattus norvegicus, UniProt Q9QYN8); assay: inhibition of binding of [3H]-N-alpha-methylhistamine to rat brain membranes; settings: for IC50: rat brain membranes, 3HNα-methylhistamine as radioligand
T1 construct: from tissue
T1 sequence (Q9QYN8 whole entry): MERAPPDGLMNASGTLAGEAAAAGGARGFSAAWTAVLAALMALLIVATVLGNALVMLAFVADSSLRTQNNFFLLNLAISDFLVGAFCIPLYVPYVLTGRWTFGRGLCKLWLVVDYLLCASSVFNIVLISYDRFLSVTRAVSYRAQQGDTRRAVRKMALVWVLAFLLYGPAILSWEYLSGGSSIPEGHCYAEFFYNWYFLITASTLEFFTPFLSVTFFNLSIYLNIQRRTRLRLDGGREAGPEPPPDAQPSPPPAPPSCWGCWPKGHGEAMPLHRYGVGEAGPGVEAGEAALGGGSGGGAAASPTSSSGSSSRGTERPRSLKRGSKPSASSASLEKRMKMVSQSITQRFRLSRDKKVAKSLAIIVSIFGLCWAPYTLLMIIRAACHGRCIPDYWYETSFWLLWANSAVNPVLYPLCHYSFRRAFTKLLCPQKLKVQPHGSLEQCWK
Description: A series of compounds were prepared and tested for their histamine H3 receptor antagonist activity. The antagonist activity of the compounds was detected by observing inhibition of (^3 H)-N-(alpha)methylhistamine activity on rat brain membranes.
The various compounds were tested for the ability to bind to the histamine H3 receptor. A binding assay in a rat brain membrane preparation, based on inhibition of binding of [^3 H]-N-alpha-methylhistamine using excess unlabeled alpha-methylhistamine to account for nonspecifc binding, was developed.

[11] = biological target: Kainate; settings: reference compound; cited from earlier work
[12] = tested on: dogs; settings: high dose, repeated dose; cited from earlier work
[13] = 2, 5, and 10 mg/kg i.p., 15 min after injection

For `O=C(CCCCC1CCCCC1)N1CCC(c2c[nH]cn2)CC1` [Compound 1, 4-(1-Cyclohexylvaleroyl-4-Piperidyl) 1H-Imidazole], the “penetration of the blood-brain barrier” value ([1]; 50 and 70 mg/kg i.p., one hour after injection) was “penetrates the blood-brain barrier”, the “penetration of the blood-brain barrier compared with thioperamide” value ([1]; taking into account the difference in affinity) was “at least as well as thioperamide” and the “effect on sleep induced by R(-)-α-methylhistamine” value ([2]; 25 mg/kg (R)α-methylhistamine) was “inhibited the soporific effect”. For the same compound, the “effectiveness as an H3-receptor antagonist in vivo” value ([2]; in vivo assays) was “effective as an H3 -receptor antagonist”, the toxicity observed [3] was “no toxicity” and the “Initial Percent Inhibition (Average; N = 2)” value (“Initial Percent Inhibition” below) [4] was 1.8%. The “Initial Percent Inhibition” value [5] was 17.4%, the “Initial Percent Inhibition” value [6] was 1.9% and the “Initial Percent Inhibition” value [7] was 8.1%.
In the case of `S=C(NC1CCCCC1)N1CCC(c2cnc[nH]2)CC1` [Thioperamide, reference compound], the “binding of [3H]-Nα-methylhistamine to H3 receptors in the cortex” value [1, 13] is reported as “decreased the binding”, the “penetration of the blood-brain barrier” value [1, 13] is reported as “able to penetrate the blood-brain barrier” and the “effect on sleep induced by R(-)-α-methylhistamine” value ([2]; 30 mg/kg (R)α-methylhistamine) is reported as “inhibit the soporific effect”. For the same compound, the “behavior with antagonist alone” value ([2]; in the absence of the α-methylhistamine H3 receptor agonist) was “very active, exhibiting normal behaviors” and the “dose needed in vivo to inhibit histamine release from the brain” value [8] was “relatively high doses are required”.
In the case of `O=C1C[C@@H]2OCC=C3CN4CC[C@]56c7ccccc7N1[C@H]5[C@H]2[C@H]3C[C@H]46` [Strychinine Nitrate], the Ki [9] is listed as 33.5 nM.
With `O=C(c1ccccc1)N1CCC(c2cn(C(=O)c3ccccc3)cn2)CC1` [Compound 43] the IC50 ([10]; Table I first part) was “inactive”.
With `Cn1cnc(C2CCN(C(=O)c3ccccc3)CC2)c1` [Compound 42] the IC50 ([10]; Table I first part) was “inactive”.
With `CC(C)(C)OC(=O)N1CCC(c2cn(C(=O)OC(C)(C)C)cn2)CC1` [Compound 45] the IC50 ([10]; Table I first part) was “inactive”.
For `N#CN=C(Oc1ccccc1)N1CCC(c2c[nH]cn2)CC1` [Compound 47], the “binding to the H3-receptor (in words)” value [10] was “ineffective”.
In the case of `O=C(CCCCC1CCCCC1)N1CCC(c2c[nH]cn2)CC1` [compound 2016], the “effect on soporific effect of R(-)-alphamethylhistamine” value ([2]; mice, both drugs administered peripherally) is reported as “reverses the soporific effect”.
For `O=C(C(C1CCCCC1)C1CCCCC1)N1CCC(c2cnc[nH]2)CC1` [Compound 9], the IC50 ([10]; Table I second part) was “inactive”.
In the case of `N#CN=C(NC1CCCCC1)N1CCC(c2c[nH]cn2)CC1` [Compound 48], the “binding to the H3-receptor (in words)” value [10] is reported as “ineffective” and the IC50 ([10]; Table I first part) is reported as “inactive”.
In the case of `C=C(C)[C@H]1CN[C@H](C(=O)O)[C@H]1CC(=O)O` [Kainic Acid], the Ki [11] is given as 24.9 nM.
For `C[C@@H](N)Cc1c[nH]cn1` [(R)α-methylhistamine, reference compound], the effect on sleeping ([2]; i.p., one hour after injection, also evident at 30 minutes) was “dose-dependent (range of 15 to 35 mg/kg) increase in sleeping”.
For `C/N=C(\S)NCCSCc1[nH]cnc1C` [metiamide], the “proportion of dogs that died acutely with pulmonary edema and pleural effusion” value [12] is given as < 10%.
In the case of `N#CN=C(Nc1ccc(-c2c[nH]cn2)cc1)NC1CCCCC1` [Compound 50], the “binding to the H3-receptor (in words)” value [10] is reported as “ineffective” and the IC50 ([10]; Table I second part) is reported as “inactive”.
With `CC(C)(C)C(=O)N1CCC(c2c[nH]cn2)CC1` [Compound 14] the IC50 ([10]; Table I second part) was “inactive”.
In the case of `O=C(CC12CC3CC(CC(C3)C1)C2)N1CCC(c2cnc[nH]2)CC1` [Compound 8], the IC50 ([10]; Table I second part) is reported as “inactive”.
In the case of `O=C(C1CCCCC1)N1CCC(c2c[nH]cn2)CC1` [Compound 41], the IC50 ([10]; Table I first part) is reported as “inactive”.
With `O=C(c1ccccc1)N1CCC(c2cn(Cc3ccccc3)cn2)CC1` [Compound 46] the IC50 ([10]; Table I first part) was “inactive”.
For `CC(C)(C)C(=O)N1CCC(c2cn(C(=O)C(C)(C)C)cn2)CC1` [Compound 44], the IC50 ([10]; Table I first part) was “inactive”.
With `O=C(Cc1ccccc1)N1CCC(c2c[nH]cn2)CC1` [Compound 4] the IC50 ([10]; Table I first part, read-out: IC50) was 1400 ± 437 nM.
